Columns and labels:
Rat [1] = assay: concentration in plasma after dosing; conditions: dosed: Wyeth-14643, 2.0 mg/kg, oral, Male, Sprague-Dawley
Rat [2] = assay: concentration in plasma after dosing; conditions: dosed: Wyeth-14643, 2.0 mg/kg, iv, Male, Sprague-Dawley
Rat [3] = assay: concentration in plasma after dosing; conditions: 5 min; dosed: Wyeth-14643; 2.0 mg/kg; oral; Male; Sprague-Dawley
Rat [4] = assay: concentration in plasma after dosing; conditions: dosed: Bis 2-Chloroethoxy Methane, 40 mg/kg, iv, Male, Harlan Sprague Dawley
Rat [5] = assay: concentration in heart after dosing; conditions: 6 h; dosed: Bis 2-Chloroethoxy Methane; 20 mg/kg; iv; Female; F344
Rat [6] = assay: concentration in thymus after dosing; conditions: 10 min; dosed: Bis 2-Chloroethoxy Methane; 20 mg/kg; iv; Male; F344
Rat [7] = assay: concentration in heart after dosing; conditions: 5 h; dosed: Bis 2-Chloroethoxy Methane; 20 mg/kg; iv; Male; F344
Rat [8] = assay: concentration in liver after dosing; conditions: 40 min; dosed: Bis 2-Chloroethoxy Methane; 20 mg/kg; iv; Male; F344
Rat [9] = assay: concentration in liver after dosing; conditions: 2 h; dosed: Bis 2-Chloroethoxy Methane; 20 mg/kg; iv; Male; F344
Rat [10] = assay: concentration in heart after dosing; conditions: 6 h; dosed: Bis 2-Chloroethoxy Methane; 20 mg/kg; iv; Female; F344; remark: listed apart in the source
Rat [11] = assay: concentration in heart after dosing; conditions: 2 h; dosed: Bis 2-Chloroethoxy Methane; 20 mg/kg; iv; Male; F344
Rat [12] = assay: concentration in kidney after dosing; conditions: 0.5 h; dosed: Fluorotelomer alcohol 8+2; 80 mg/kg; oral; Female; Harlan Sprague Dawley
Rat [13] = assay: concentration in liver after dosing; conditions: 6 h; dosed: Fluorotelomer alcohol 8+2; 24 mg/kg; oral; Male; Harlan Sprague Dawley
Rat [14] = assay: concentration in brain after dosing; conditions: 6 h; dosed: Fluorotelomer alcohol 8+2; 24 mg/kg; oral; Male; Harlan Sprague Dawley
Rat [15] = assay: concentration in plasma after dosing; conditions: 40 min; dosed: Di-n-butyl phthalate; 20 mg/kg; iv; Male; Sprague-Dawley
Rat [16] = assay: concentration in plasma after dosing; conditions: 6 h; dosed: Di-n-butyl phthalate; 20 mg/kg; iv; Male; Sprague-Dawley
Rat [17] = assay: concentration in plasma after dosing; conditions: 4 h; dosed: Di-n-butyl phthalate; 20 mg/kg; iv; Male; Sprague-Dawley
Rat [18] = assay: concentration in plasma after dosing; conditions: 0.5 h; dosed: Di-n-butyl phthalate; 50 mg/kg; oral; Male; Sprague-Dawley
Rat [19] = assay: concentration in plasma after dosing; conditions: 2 h; dosed: Di-n-butyl phthalate; 100 mg/kg; oral; Male; Sprague-Dawley
Rat [20] = assay: concentration in liver after dosing; conditions: 1848 h; dosed: Perfluorodecanoic acid; 10 mg/kg; oral; Female; Harlan Sprague Dawley
Rat [21] = assay: concentration in liver after dosing; conditions: 864 h; dosed: Perfluorodecanoic acid; 10 mg/kg; oral; Female; Harlan Sprague Dawley
Rat [22] = assay: concentration in kidney after dosing; conditions: 24 h; dosed: Perfluorodecanoic acid; 10 mg/kg; oral; Male; Harlan Sprague Dawley
Rat [23] = assay: concentration in liver after dosing; conditions: 3360 h; dosed: Perfluorodecanoic acid; 10 mg/kg; oral; Male; Harlan Sprague Dawley
Rat [24] = assay: concentration in plasma after dosing; conditions: 22 h; dosed: Primidone; 80 mg/kg; oral; Male; F344
Rat [25] = assay: concentration in plasma after dosing; conditions: 3 h; dosed: Primidone; 30 mg/kg; oral; Male; F344
Rat [26] = assay: concentration in plasma after dosing; conditions: 12 h; dosed: Primidone; 30 mg/kg; oral; Male; F344
Rat [27] = assay: concentration in plasma after dosing; conditions: 20 min; dosed: Thiodiglycolic Acid; 20 mg/kg; iv; Female; Harlan Sprague Dawley
Rat [28] = assay: concentration in thymus after dosing; conditions: 3 h; dosed: Thiodiglycolic Acid; 20 mg/kg; iv; Male; Harlan Sprague Dawley
Rat [29] = assay: concentration in liver after dosing; conditions: 10 min; dosed: Thiodiglycolic Acid; 20 mg/kg; iv; Female; Harlan Sprague Dawley
Rat [30] = assay: concentration in liver after dosing; conditions: 20 min; dosed: Thiodiglycolic Acid; 20 mg/kg; iv; Female; F344
Rat [31] = assay: concentration in plasma after dosing; conditions: 1 h; dosed: Thiodiglycolic Acid; 20 mg/kg; iv; Male; Harlan Sprague Dawley
Rat [32] = assay: concentration in thymus after dosing; conditions: 3 h; dosed: Thiodiglycolic Acid; 20 mg/kg; iv; Female; Harlan Sprague Dawley
Rat [33] = assay: concentration in liver after dosing; conditions: 8 h; dosed: Thiodiglycolic Acid; 20 mg/kg; iv; Female; Harlan Sprague Dawley
Rat [34] = assay: concentration in liver after dosing; conditions: 8 h; dosed: Thiodiglycolic Acid; 20 mg/kg; iv; Female; Harlan Sprague Dawley; remark: listed apart in the source
Rat [35] = assay: concentration in heart after dosing; conditions: 5.333 h; dosed: Thiodiglycolic Acid; 20 mg/kg; iv; Female; Harlan Sprague Dawley
Rat [36] = assay: concentration in thymus after dosing; conditions: 10 h; dosed: Thiodiglycolic Acid; 20 mg/kg; iv; Female; Harlan Sprague Dawley
Rat [37] = assay: concentration in plasma after dosing; conditions: 20 min; dosed: dichloroacetic acid; 10 mg/kg; iv; Male; F344
Rat [38] = assay: concentration in plasma after dosing; conditions: 5 min; dosed: dichloroacetic acid; 10 mg/kg; iv; Male; F344
Rat [39] = assay: concentration in plasma after dosing; conditions: 20 min; dosed: dichloroacetic acid; 10 mg/kg; oral; Male; Harlan Sprague Dawley

## Cc1cccc(Nc2cc(Cl)nc(SCC(=O)O)n2)c1C
Rat [1]; 0.5 h
  concentration in plasma: 1670 ng/mL
Rat [1]; 5 h
  concentration in plasma: 507 ng/mL
Rat [2]; 0.5 h
  concentration in plasma: 5200 ng/mL
Rat [2]; 3 h
  concentration in plasma: 338 ng/mL
Rat [3]
  concentration in plasma: 401 ng/mL

## ClCCOCOCCCl [Bis 2-Chloroethoxy Methane]
Rat [4]; 10 min
  concentration in plasma: 22600 ng/mL
Rat [4]; 5.333 h
  concentration in plasma: 67 ng/mL
Rat [5]
  concentration in heart: 33.8 ng/g
Rat [6]
  concentration in thymus: 45200 ng/g
Rat [7]
  concentration in heart: 54.3 ng/g
Rat [8]
  concentration in liver: 4070 ng/g
Rat [9]
  concentration in liver: 135 ng/g
Rat [10]
  concentration in heart: 28.6 ng/g
Rat [11]
  concentration in heart: 450 ng/g

## OCCC(F)(F)C(F)(F)C(F)(F)C(F)(F)C(F)(F)C(F)(F)C(F)(F)C(F)(F)F [Fluorotelomer alcohol 8+2]
Rat [12]
  concentration in kidney: 3400 ng/g
Rat [13]
  concentration in liver: 1220 ng/g
Rat [14]
  concentration in brain: 323 ng/g

## CCCCOC(=O)c1ccccc1C(=O)O [Mono-n-butyl phthalate]
Rat [15]
  concentration in plasma: 8270 ng/mL
Rat [16]
  concentration in plasma: 1110 ng/mL
Rat [17]
  concentration in plasma: 678 ng/mL
Rat [18]
  concentration in plasma: 20500 ng/mL
Rat [19]
  concentration in plasma: 3520 ng/mL

## O=C(O)C(F)(F)C(F)(F)C(F)(F)C(F)(F)C(F)(F)C(F)(F)C(F)(F)C(F)(F)C(F)(F)F [Perfluorodecanoic acid]
Rat [20]
  concentration in liver: 27400 ng/g
Rat [21]
  concentration in liver: 43600 ng/g
Rat [22]
  concentration in kidney: 29300 ng/g
Rat [23]
  concentration in liver: 13300 ng/g

## CCC1(c2ccccc2)C(=O)NC(=O)NC1=O [Phenobarbital]
Rat [24]
  concentration in plasma: 2870 ng/mL
Rat [25]
  concentration in plasma: 2460 ng/mL
Rat [26]
  concentration in plasma: 2660 ng/mL

## O=C(O)CSCC(=O)O [Thiodiglycolic Acid]
Rat [27]
  concentration in plasma: 16300 ng/mL
Rat [28]
  concentration in thymus: 1430 ng/g
Rat [29]
  concentration in liver: 70700 ng/g
Rat [30]
  concentration in liver: 174000 ng/g
Rat [31]
  concentration in plasma: 1580 ng/mL
Rat [32]
  concentration in thymus: 2120 ng/g
Rat [33]
  concentration in liver: 60900 ng/g
Rat [34]
  concentration in liver: 29000 ng/g
Rat [35]
  concentration in heart: 321 ng/g
Rat [36]
  concentration in thymus: 254 ng/g

## O=C(O)C(Cl)Cl [dichloroacetic acid]
Rat [37]
  concentration in plasma: 2260 ng/mL
Rat [38]
  concentration in plasma: 15100 ng/mL
Rat [39]
  concentration in plasma: 291 ng/mL

From EPA's CvTdb concentration-time database
